Data as given in PubChem BioAssay AID248 (DTP/NCI, 2004).
Several values for one entry are separate records, joined by “and”; a condition that tells them apart may be missing. Equal entries are not always repeated. Inconclusive results and toxic doses are left out. No stated cut-off is given here; in the data, active means T/C of 150% or more; inactive means T/C below 125%.

Test system: L1210 leukemia ip in BDF1 mice, survival T/C
Test: NCI In Vivo Anticancer Drug Screen. Data for tumor model L1210 Leukemia (intraperitoneal) in B6D2F1 (BDF1) mice
Details: endpoint: mean survival time, higher = longer survival
How it was run: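 Each compound was tested against a transplantable tumor grown in mice. The endpoint was survival, with treated animals benchmarked against vehicle controls as a simple ratio.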

[1] = dose: 100.0 mg/kg/injection, schedule: Q01DX001 (ip), vehicle: saline
[2] = dose: 200.0 mg/kg/injection, schedule: Q01DX001 (ip), vehicle: saline
[3] = dose: 400.0 mg/kg/injection, schedule: Q01DX001 (ip), vehicle: saline
[4] = dose: 100.0 mg/kg/injection, schedule: Q01DX009 (ip), vehicle: saline with Tween-80
[5] = dose: 200.0 mg/kg/injection, schedule: Q01DX009 (ip), vehicle: saline with Tween-80

Measured: T/C

OC1(c2ccccc2)c2ccccc2C(O)(c2ccccc2)c2cc(-c3ccccc3)c(-c3ccccc3)cc21 (configuration not stated)
inactive: dose: 100.0 mg/kg/injection, schedule: Q04DX002 (ip), vehicle: Klucel (hydroxypropylcellulose) (HPC) 95 % of control | dose: 200.0 mg/kg/injection, schedule: Q04DX002 (ip), vehicle: Klucel (hydroxypropylcellulose) (HPC) 103 % of control | dose: 400.0 mg/kg/injection, schedule: Q04DX002 (ip), vehicle: Klucel (hydroxypropylcellulose) (HPC) 106 % of control

Nc1nc2ncc(CNc3ccc(C(=O)NC(CCC(=O)O)C(=O)O)s3)nc2c(=O)[nH]1 (configuration not stated)
inactive: [1] 95 % of control | [2] 101 % of control and 95 % of control | [3] 93 % of control and 90 % of control

Cc1cc(Cl)ccc1NC(=O)Nc1cccc(F)c1
inactive: dose: 100.0 mg/kg/injection, schedule: Q01DX009 (ip), vehicle: Klucel (hydroxypropylcellulose) (HPC) 88 % of control | dose: 200.0 mg/kg/injection, schedule: Q01DX009 (ip), vehicle: Klucel (hydroxypropylcellulose) (HPC) 90 % of control | dose: 400.0 mg/kg/injection, schedule: Q01DX009 (ip), vehicle: Klucel (hydroxypropylcellulose) (HPC) 86 % of control

O=C(Nc1ccc(S(=O)(=O)F)cc1)/C(=C\c1ccc([N+](=O)[O-])cc1)c1cccc2ccccc12
inactive: dose: 100.0 mg/kg/injection, schedule: Q01DX009 (ip), vehicle: saline 91 % of control | dose: 200.0 mg/kg/injection, schedule: Q01DX009 (ip), vehicle: saline 99 % of control | dose: 400.0 mg/kg/injection, schedule: Q01DX009 (ip), vehicle: saline 94 % of control

N#CC1C(=O)NC(=O)C(C#N)C12CCCCC2 (configuration not stated)
inactive: [1] 106 % of control | [4] 101 % of control | [2] 106 % of control | [5] 97 % of control

Cc1ccc(NC(=O)C(F)(F)C(F)(F)C(F)(F)F)cc1
inactive: [1] 89 % of control | [2] 97 % of control | [3] 105 % of control

O=C(O)/C=C/C(=O)NC1CCCCC1
inactive: [4] 94 % of control | [5] 96 % of control | dose: 400.0 mg/kg/injection, schedule: Q01DX009 (ip), vehicle: saline with Tween-80 98 % of control

CCNC(=S)NNC(=S)NNc1ccccc1
inactive: dose: 12.5 mg/kg/injection, schedule: Q04DX002 (ip), vehicle: other 102 % of control | dose: 25.0 mg/kg/injection, schedule: Q04DX002 (ip), vehicle: other 100 % of control | dose: 50.0 mg/kg/injection, schedule: Q04DX002 (ip), vehicle: other 102 % of control

COB(OC)C1CCCC1
inactive: dose: 100.0 mg/kg/injection, schedule: Q01DX001 (ip), vehicle: Klucel (hydroxypropylcellulose) (HPC) 92 % of control | dose: 200.0 mg/kg/injection, schedule: Q01DX001 (ip), vehicle: Klucel (hydroxypropylcellulose) (HPC) 95 % of control

CC(C)COC(=O)CCCCC(=O)OCC(C)C
inactive: dose: 100.0 mg/kg/injection, schedule: Q04DX003 (ip), vehicle: saline with Tween-80 113 % of control | dose: 200.0 mg/kg/injection, schedule: Q04DX003 (ip), vehicle: saline with Tween-80 107 % of control | dose: 400.0 mg/kg/injection, schedule: Q04DX003 (ip), vehicle: saline with Tween-80 110 % of control

CC[C@@H]1O[C@@H]([C@@H]2CC[C@](O)([C@]3(C)CC[C@@H]([C@@H](C)[C@@]4(O)CC[C@H](C)[C@@H](C[C@@]5(O)O[C@@H]([C@@H](C)[C@H](O)C[C@H]6CC[C@H](C)[C@@H]([C@@H](C)C(=O)O)O6)CC[C@@H]5C)O4)O3)O2)CC[C@@]1(C)O
inactive: dose: 0.09 mg/kg/injection, schedule: Q04DX002 (ip), vehicle: saline 93 % of control | dose: 0.19 mg/kg/injection, schedule: Q04DX002 (ip), vehicle: saline 90 % of control | dose: 0.39 mg/kg/injection, schedule: Q04DX002 (ip), vehicle: saline 87 % of control

CC(C)(C)C(=O)C#Cc1ccccc1
inactive: dose: 25.0 mg/kg/injection, schedule: Q04DX003 (ip), vehicle: saline 102 % of control | dose: 50.0 mg/kg/injection, schedule: Q04DX003 (ip), vehicle: saline 96 % of control | dose: 100.0 mg/kg/injection, schedule: Q04DX003 (ip), vehicle: saline 89 % of control

CCOC(=O)OC1CC/C(=N\N=C(N)N)C1 (configuration not stated)
inactive: dose: 15.0 mg/kg/injection, schedule: Q01DX Z (ip), vehicle: methylcellulose (MC) 110 % of control | dose: 30.0 mg/kg/injection, schedule: Q01DX Z (ip), vehicle: methylcellulose (MC) 96 % of control | dose: 120.0 mg/kg/injection, schedule: Q01DX Z (ip), vehicle: methylcellulose (MC) 92 % of control

CCCCCCC(C)NCC(C)(C)OC(=O)c1ccc(N)cc1 (configuration not stated)
inactive: dose: 75.0 mg/kg/injection, schedule: Q01DX001 (ip), vehicle: other 93 % of control | dose: 150.0 mg/kg/injection, schedule: Q01DX001 (ip), vehicle: other 101 % of control | dose: 300.0 mg/kg/injection, schedule: Q01DX001 (ip), vehicle: other 93 % of control
